Measurements taken from patent publication US20240246963A1, “BIFUNCTIONAL COMPOUNDS AND PHARMACEUTICAL USES THEREOF” (RISEN (SUZHOU) PHARMA TECH CO., LTD., priority 2022, published 2024).

Key:
NCI-H727 cells (G12V) = test: Cell proliferation study (Cell Titer Glo, 72 hours), NCI-H727; type: cell-based; conditions: Homo sapiens
Protocol: (§1) Aspc-1(Cobioer, CBP60546), GP2D(Cobioer, CBP60683), Mia paca2 (Cobioer, CBP60136), NCI-H358 (Cobioer, CBP60544), H727 (Cobioer, CBP60182), MKN-1 (Cobioer, CBP60486), and PSN1 (Cobioer, CBP61215) cells in exponential growth phase were seeded into a 96-well plate (Greiner, 655090) at density of 3E3/well. Cells were cultured overnight at 37° C. with 5% CO2. On the next day, cells were treated with compound at various concentrations for 72 hours in 37° C., 5% CO2 incubator (final DMSO concentration was 0.1%). After treatment, 100 μL Cell Tier Glo (Promega, G7573) were added to every well on the cell plate and incubated at room temperature (RT) for 10 minutes. Cell growth status was measured with Cell Tier Glo (Promega, G7573) following manufacturer's directions. Inhibition level was calculated according to the following formula: […]
(§2) where the “Maximum Signal” are signal of wells containing DMSO without compound; the “Minimum Signal” are signal of wells recorded at Day 0 prior to commencement of the experiment; and the “Test compound signal” are signal of wells containing compound at established concentrations.
(§3) The inhibition curve was obtained with GraphPad 7.0 software using four-parameter equation.

Mia paca2 cells (G12C) = test: Cell proliferation study (Cell Titer Glo, 72 hours), Mia paca2; type: cell-based; conditions: Homo sapiens, MIA PaCa-2
Protocol: as §1, §2, §3

AsPc-1 cells (G12D) = test: Cell proliferation study (Cell Titer Glo, 72 hours), AsPc-1; type: cell-based; conditions: Homo sapiens, ASPC1
Protocol: as §1, §2, §3

[1] = Pharmacokinetics in male ICR mice; type: in vivo; conditions: mouse, plasma
GP2D cells = test: Tumor xenograft study (GP2D); type: in vivo, Balb/c nude mice (Nu/Nu)
Protocol: All studies were conducted in accordance with all applicable regulations and guidelines of the Institutional Animal Care and Use Committee (IACUC). Mice were maintained under pathogen-free conditions, and food and water were provided ad libitum. 6-8-week-old female, Balb/c nude mice (Nu/Nu) were injected subcutaneously with GP2D cells in 100 μL of PBS and Matrigel matrix in the right hind flank with 5×10^6 cells 50:50 cells: Matrigel. Mouse health was monitored daily, and caliper measurements began when tumors were palpable. Tumor volume measurements were determined utilizing the formula 0.5×L×W^2 in which L refers to length and W refers to width of each tumor. When tumors reached an average tumor volume of ˜200 mm^3, mice were randomized into treatment groups. The animals were divided into at least five mice per group. Mice were treated with test compound. Animals were monitored daily, and body weights and tumors were measured twice per week. “TGI” means tumor growth inhibition value.

PSN-1 cells (G12R) = test: Cell proliferation study (Cell Titer Glo, 72 hours), PSN-1; type: cell-based; conditions: Homo sapiens, PSN1
Protocol: as §1, §2, §3

GP2D cells (G12D) = test: Cell proliferation study (Cell Titer Glo, 72 hours), GP2D; type: cell-based
Protocol: as §1, §2, §3

NCI-H358 cells (G12C) = test: Cell proliferation study (Cell Titer Glo, 72 hours), NCI-H358; type: cell-based; conditions: Homo sapiens
Protocol: as §1, §2, §3

MKN1 cells (WT) = test: Cell proliferation study (Cell Titer Glo, 72 hours), MKN1; type: cell-based; conditions: Homo sapiens, MKN-1
Protocol: as §1, §2, §3

RAS G12D protein = target: T1, RAS G12D protein (Homo sapiens, UniProt P01116, G12D); test: Protein degradation study (western blot) in Aspc-1 cells; type: cell-based; conditions: for percent protein degradation at 0.01 µM: 0.010 μM compound; for percent protein degradation at 0.1 µM: 0.1 μM compound; for Dmax: ASPC1, G12D in Aspc-1 cells; for DC50: half-maximum degradation concentration on G12D in Aspc-1 cells
T1 construct: host or cells: Aspc-1 (AsPC-1) cells
Protocol: Aspc-1 (Cobioer, CBP60546) cells in exponential growth phase were inoculated on a 6-well cell culture plate (Corning, 3516) at density of 1E6/well; and cells in the plate were cultured in a 37° C. incubator containing 5%-carbon dioxide. The next day, test compounds were dissolved in DMSO (Sigma, RNBF5902) for the preparation of a 10-mM concentration stock solution. The stock solution was diluted with complete medium (RPMI-1640 supplemented with 10% fetal bovine serum, 1% penicillin-streptomycin), yielding working solutions of various concentrations. The plate, after the addition of compounds, was placed in a 5% carbon dioxide incubator, and incubated at 37° C. for 24 hours (final DMSO concentration was 0.1%). The plate was then removed from the incubator, and the cells were washed twice with precooled PBS (Gibco, 14190250), followed by addition of 80 μL RIPA (CST, 9806S) lysis buffer (containing protease inhibitor (Invitrogen™, AM2696)) to each well. The adherent cells were scraped off with a cell scraper, and the cell lysate was transferred to a 1.5 mL centrifuge tube followed with a 30-minute incubation on ice. The lysate was then clarified with centrifugation at 12000 rpm for 10 min at 4° C. The supernatant was transferred into a new 1.5 mL centrifuge tube, and protein concentration was measured with BCA protein detection kit (Thermo Fisher, 23225). G12D protein level was assessed by western blot. A mixture of cell lysate (40 μL) and loading buffer (10 μL, 5×SDS (Beyotime, P0015L)) was denatured in a water-bath at 95° C. for 10 min. The denatured protein sample, at 30 μg/well, was loaded into a corresponding well of a 4-20% Bis-Tris gel (Kingsley, M00656). Protein samples were initially electrophoresed at 80 V for 30 minutes, followed by 120 V for 40 minutes, until the bromophenol blue strip ran to an appropriate position. After electrophoresis, iBlot2 (Life Technologies, IB21001) was used to transfer the separated samples onto PVDF film. The PVDF membrane was washed with double-distilled water and then blocked in TBST (Thermo Scientific, 28360) buffer containing 5% non-fat milk, for 2 hours. Blocked membrane was rinsed with tris-buffered saline tween-2 (Thermo Scientific, 28360, TBST) three times, 10 minutes each. Membrane was then incubated with 1:1000 diluted RAS Gi2D primary antibody (CST, cat #14429S) overnight at 4° C. Membrane was rinsed in a way described previously followed by 1 hour incubation of secondary antibody at room temperature. After washing the film for three times with TBST, ECL color developing solution was applied, and image was captured with Biorad Chemi Doc gel imager. The band gray value was quantified (Image Lab), and protein degradation level was calculated according to the following formulas:
Level of RAS G12D protein expression=(RAS G12D−compound/β-Actin)−compound/(RAS G12D−DMSO/β-Actin−DMSO)
Level of degradation (%)=(1−Rate of RAS G12D protein expression)×100
Symbols of −, +, ++, +++, ++++, +++++ indicate that the degradation level of Ras protein induced by test compounds was 10% or less, 10 to 30%, 30 to 60%, 60 to 70%, 70 to 75%, and greater than 75%, respectively. “NT” indicates not tested.
“NT” indicates not tested.

[2] = ASPC1, 24 h, Aspc-1 cells, 24 hours, read-out: Rate of protein degradation (%)

T1 sequence (P01116 1-188 isoform P01116-2 G12D): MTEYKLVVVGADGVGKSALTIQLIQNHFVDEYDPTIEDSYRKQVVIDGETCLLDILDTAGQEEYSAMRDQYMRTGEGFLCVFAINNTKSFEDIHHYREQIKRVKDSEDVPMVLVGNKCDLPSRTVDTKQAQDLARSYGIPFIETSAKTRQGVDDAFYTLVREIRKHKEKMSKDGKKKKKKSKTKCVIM

Compound	IC50 (NCI-H727 cells (G12V)) [nM]	IC50 (Mia paca2 cells (G12C)) [nM]	IC50 (AsPc-1 cells (G12D)) [nM]	AUC(0-t) ([1]; IV (3 mg/kg)) [ng·h/mL]	half-life ([1]; IV (3 mg/kg)) [h]	AUC(0-t) ([1]; PO (10 mg/kg)) [ng·h/mL]	half-life ([1]; PO (10 mg/kg)) [h]	TGI (%) (GP2D cells; IP, 10 mg/kg, q3d, 21 days)	IC50 (PSN-1 cells (G12R)) [nM]	IC50 (GP2D cells (G12D)) [nM]	IC50 (NCI-H358 cells (G12C)) [nM]	IC50 (MKN1 cells (WT)) [nM]	percent protein degradation at 0.01 µM (RAS G12D protein; [2]) [%]	percent protein degradation at 0.1 µM (RAS G12D protein; [2]) [%]	Dmax (RAS G12D protein) [%]	DC50 (RAS G12D protein) [nM]	TGI (%) (GP2D cells; PO, 30 mg/kg, bid, 14 days)	percent protein degradation at 0.005 µM (RAS G12D protein; ASPC1, 24 h, 0.005 μM compound, Aspc-1 cells, 24 hours, read-out: Rate of protein degradation (%)) [%]
CCc1c(F)ccc2cc(O)cc(-c3ncc4c(N5CCC[C@@](C)(O)C5)nc(OCC5(CN6CCC7(CC6)CC(N6CCC(c8ccc9c(C%10CCC(=O)NC%10=O)nn(C)c9c8)CC6)C7)CC5)nc4c3F)c12 (stereo partly shown) [Compound 86]	2.45	3.38	15.6	1330	14.3	103	6.52	75.8	459	0.158	17.6	400	> 75	> 75	78	1 to 10	–	–
CCc1c(F)ccc2cc(O)cc(-c3ncc4c(N5CCC[C@@](C)(O)C5)nc(OCC5(CN6CCC(CN7CCC(c8ccc9c(C%10CCC(=O)NC%10=O)nn(C)c9c8)CC7)CC6)CC5)nc4c3F)c12 (stereo partly shown) [Compound 101]	16.4	9.51	109	–	–	–	–	–	463	0.214	23.9	409	70 to 75	70 to 75	–	1 to 10	–	–
CCc1c(F)ccc2cc(O)cc(-c3ncc4c(N5CCC[C@]6(CCO6)C5)nc(OCC5(CN6CCC7(CC6)CC(N6CCC(c8cc9c(cc8F)c(N8CCC(=O)NC8=O)nn9C)CC6)C7)CC5)nc4c3F)c12 [Compound 202]	3.61	–	7.83	–	–	–	–	–	–	0.06	17.1	–	–	–	81	1 to 10	75.8	> 75
